Experimental data from patent US20040197416A1, “Nanocapsules containing a steroid for cosmetic compositions” (priority 2001, published 2004).

Experiments:
skin = conditions: rats; cited from earlier work
fibroblasts = conditions: cited from earlier work
human keratinocytes = conditions: cited from earlier work
[1] = Solubility of DHEA in various oily solvents (excess DHEA, supernatant analysed by HPLC); type: physicochemical; conditions: for RT solubility: room temperature (25° C.), after 24 hours; for solubility of DHEA: comparative
Description: The solubility measurement was performed in the following manner. DHEA was dispersed, in excess, in the solvent under consideration, and preheated to 60° C. This temperature was maintained for one hour with stirring using a magnetic bar. The suspension was then cooled to room temperature (RT, 25° C.). After 24 hours, the suspension was centrifuged to remove the undissolved DHEA crystals. The supernatant was taken up and the absence of DHEA crystals was checked by cross-polarized optical microscopy. This supernatant was then analysed by HPLC. It is considered that the amount of DHEA detected corresponds to its maximum solubility in the solvent under consideration.

Row | SMILES | elastin and collagen content of the skin (skin) | thickness of the dermis (skin) | proliferation of fibroblasts (fibroblasts) | viability of human keratinocytes (human keratinocytes) | RT solubility ([1]; DHEA in Capric/caprylic triglycerides) | RT solubility ([1]; DHEA in Isopropyl palmitate) | RT solubility ([1]; DHEA in Isostearyl neopentanoate) | RT solubility ([1]; DHEA in Jojoba oil) | RT solubility ([1]; DHEA in Octyl palmitate) | RT solubility ([1]; DHEA in PPG-15 stearyl ether) | RT solubility ([1]; DHEA in Sesame oil) | RT solubility ([1]; DHEA in α-Tocopherol) | solubility of DHEA ([1]; in cetearyl isononanoate) | solubility of DHEA ([1]; in cyclopentasiloxane) | solubility of DHEA ([1]; in liquid paraffin) | solubility of DHEA ([1]; in polydimethylsiloxane (200-350 cs)) | solubility of DHEA ([1]; in squalane)
1 | C[C@]12CC[C@H](O)CC1=C[C@@H](O)[C@@H]1[C@@H]2CC[C@]2(C)C(=O)CC[C@@H]12 [7α-hydroxy DHEA] | increases | increases | increase | increase | – | – | – | – | – | – | – | – | – | – | – | – | –
2 | C[C@]12CC[C@H](O)CC1=CC[C@@H]1[C@@H]2CC[C@]2(C)C(=O)CC[C@@H]12 [DHEA, dehydroepiandrosterone] | – | – | – | – | 1.77% | 1.37% | 1.30% | 1.10% | 1% | 2.68% | 1.40% | 1.65% | 0.83% | 0.04% | 0% | 0.17% | 0.10%
